{
  "source": "patent US10051861B2",
  "about": "“N-arylamidine-substituted trifluoroethyl sulfide derivatives as acaricides and insecticides” (BAYER CROPSCIENCE AG, priority 2011, dated 2018)",
  "key": {"[1]": {"test_system": "greenhouse red spider mite (Tetranychus urticae)", "test": "Tetranychus urticae spray test, OP-resistant (TETRUR), bean leaf disks", "type": "in vivo", "settings": "for pest or weed control at 500 g/ha: Tetranychus urticae, foliar, 144 h, read-out: efficacy (spider mites killed)", "protocol": "(§1) After 6 days, the effect in % is determined."}, "[2]": {"test_system": "cattle ticks (Boophilus microplus)", "test": "Boophilus microplus injection test (BOOPMI Inj)", "type": "in vivo", "settings": "for pest or weed control at 0.02 mg: Rhipicephalus microplus, 168 h, read-out: efficacy (laying of fertile eggs)", "protocol": "(§2) Solvent: dimethyl sulfoxide\n1 μl of the active compound solution is injected into the abdomen of 5 engorged adult female cattle ticks (Boophilus microplus). The animals are transferred into dishes and kept in a climate-controlled room.\n(§3) The activity is assessed after 7 days by laying of fertile eggs. Eggs whose fertility is not visible from the outside are stored in a climate-controlled cabinet until the larvae hatch after about 42 days. An efficacy of 100% means that none of the ticks has laid any fertile eggs; 0% means that all eggs are fertile."}, "Boophilus microplus": {"test_system": "Boophilus microplus", "test": "Boophilus microplus test (BOOPMI injection)", "type": "in vivo", "parameters": "dose or concentration left out as unconfirmed", "settings": "after 7 days", "protocol": "as §2\nThe solution of active compound is injected into the abdomen (Boophilus microplus), and the animals are transferred into dishes and kept in a climatized room. The activity is assessed by laying of fertile eggs.\n100% means that none of the ticks has laid any fertile eggs."}, "[3]": {"test": "logP by HPLC on reversed-phase columns (C 18), EEC Directive 79/831 Annex V.A8", "type": "physicochemical", "settings": "for logP(HCOOH): pH 2.7; for logP(neutral): pH 7.8", "protocol": "Calibration is carried out using unbranched alkan-2-ones (having from 3 to 16 carbon atoms) with known log P values (the log P values are determined by the retention times using linear interpolation between two successive alkanones)."}, "Meloidogyne incognita": {"test_system": "Meloidogyne incognita", "test": "Meloidogyne incognita test (MELGIN)", "type": "in vivo", "settings": "application rate 20 ppm, after 14 days", "protocol": "Solvents: 80.0 parts by weight of acetone\nContainers are filled with sand, solution of active compound, Meloidogyne incognita egg/larvae suspension and lettuce seeds. The lettuce seeds germinate and the plants develop. On the roots, galls are formed.\nAfter 14 days, the nematicidal efficacy in % is determined by the formation of galls. 100% means that no galls have been found; 0% means that the number of galls on the treated plants corresponds to the untreated control."}, "[4]": {"test_system": "larvae of the mustard beetle (Phaedon cochleariae)", "test": "Phaedon cochleariae spray test (PHAECO)", "settings": "for effect (beetle larvae killed): application rate 500 g/ha, after 7 days; for pest or weed control at 500 g/ha: Phaedon cochleariae, 168 h, read-out: effect (beetle larvae killed)"}, "[5]": {"test_system": "greenhouse red spider mite (Tetranychus urticae)", "test": "Tetranychus test, OP-resistant (TETRUR spray treatment)", "type": "in vivo", "settings": "application rate 500 g/ha, after 6 days", "protocol": "as §1"}, "[6]": {"test_system": "larvae of the mustard beetle (Phaedon cochleariae)", "test": "Phaedon test (PHAECO spray treatment)", "settings": "application rate 500 g/ha, after 7 days"}, "[7]": {"test_system": "L1 larvae of the Australian sheep blowfly (Lucilia cuprina)", "test": "Lucilia cuprina test (LUCICU)", "type": "in vivo", "settings": "application rate 100 ppm, after 2 days", "protocol": "as §2\nAbout 20 L1 larvae of the Australian sheep blowfly (Lucilia cuprina) are transferred into a test vessel containing minced horsemeat and the active compound preparation of the desired concentration.\nAfter 2 days, the kill in % is determined."}, "[8]": {"test_system": "cattle ticks (Boophilus microplus) Parkhurst strain, SP-resistant", "test": "Boophilus microplus dip test (BOOPMI Dip)", "type": "in vivo", "settings": "application rate 100 ppm, after 7 days", "protocol": "Test animals: cattle ticks (Boophilus microplus) Parkhurst strain, SP-resistant\nas §2\n10 mg of active compound are dissolved in 0.5 ml of dimethyl sulfoxide. To prepare a suitable formulation, the active compound solution is diluted with water to the concentration desired in each case.\nThis active compound preparation is pipetted into tubes. 8-10 adult engorged female cattle ticks (Boophilus microplus) are transferred into a further tube with holes. The tube is immersed into the active compound formulation, and all ticks are completely wetted. After the liquid has run out, the ticks are transferred on filter disks into plastic dishes and stored in a climate-controlled room.\nas §3"}, "[9]": {"test_system": "green peach aphid (Myzus persicae)", "test": "Myzus persicae spray test (MYZUPE)", "type": "in vivo", "settings": "after 6 days", "protocol": "as §1"}, "[10]": {"test_system": "greenhouse red spider mite (Tetranychus urticae)", "test": "Tetranychus urticae spray test, OP-resistant (TETRUR), bean plants", "type": "in vivo", "settings": "after 7 days", "protocol": "Solvents: 7 parts by weight of dimethylformamide\nEmulsifier: 2 part by weight of alkylaryl polyglycol ether\nIf the addition of ammonium salts or/and penetrants is required, these are in each case added in a concentration of 1000 ppm to the solution of the preparation.\nBean plants (Phaseolus vulgaris) which are heavily infested by all stages of the greenhouse red spider mite (Tetranychus urticae) are treated by spraying with the active compound preparation of the desired concentration."}, "[11]": {"settings": "application rate 500 g/ha, after 6 days"}, "[12]": {"settings": "application rate 20 μg/animal, injection, after 7 days"}},
  "note": "Where two headings read alike, the source gives them in different places.",
  "data": [
    {"molecule": "Cc1cc(F)c(/N=C(/N(C)C)C(F)(F)F)cc1[S+]([O-])CC(F)(F)F", "note": "(stereo not shown) [Ib-01, 2,2,2-Trifluoro-N′-{2-fluoro-4-methyl-5-[(2,2,2-trifluoroethyl)sulfinyl]phenyl}-N,N-dimethylethanimidamide]", "values": [
      {"measurement": "pest or weed control at 500 g/ha", "setting": "[1]; [11]", "result": 90, "unit": "%"},
      {"measurement": "pest or weed control at 0.02 mg", "setting": "[2]; [12]", "result": 100, "unit": "%"},
      {"measurement": "efficacy (laying of fertile eggs)", "setting": "Boophilus microplus", "result": 100, "unit": "%"},
      {"measurement": "chromatographic logP", "setting": "[3]; reversed-phase C18 HPLC column, pH 2.7, [a] LC-MS, acidic range, pH 2.7, 0.1% aqueous formic acid/acetonitrile, read-out: logP(HCOOH)", "result": 3.15}
    ]},
    {"molecule": "CCNC(=Nc1cc([S+]([O-])CC(F)(F)F)c(C)cc1F)C(F)(F)F", "note": "(stereo not shown) [Ib-02]", "values": [
      {"measurement": "efficacy (spider mites killed)", "setting": "[1]; [11]", "result": 100, "unit": "%"},
      {"measurement": "nematicidal efficacy (formation of galls)", "setting": "Meloidogyne incognita", "result": 100, "unit": "%"},
      {"measurement": "effect (beetle larvae killed)", "setting": "[4]", "result": 100, "unit": "%"},
      {"measurement": "efficacy (laying of fertile eggs)", "setting": "[2]; [12]", "result": 100, "unit": "%"},
      {"measurement": "efficacy (spider mites killed)", "setting": "[5]", "result": 100, "unit": "%"},
      {"measurement": "efficacy (beetle larvae killed)", "setting": "[6]", "result": 100, "unit": "%"},
      {"measurement": "efficacy (kill of larvae)", "setting": "[7]", "result": 80, "unit": "%"}
    ]},
    {"molecule": "CN/C(=N/c1ccc(C(F)(F)F)c([S+]([O-])CC(F)(F)F)c1)C(F)(F)F", "note": "(stereo not shown) [Ib-10]", "values": [
      {"measurement": "efficacy (spider mites killed)", "setting": "[1]; [11]", "result": 100, "unit": "%"},
      {"measurement": "effect (beetle larvae killed)", "setting": "[4]", "result": 100, "unit": "%"},
      {"measurement": "efficacy (laying of fertile eggs)", "setting": "[2]; [12]", "result": 100, "unit": "%"},
      {"measurement": "efficacy (laying of fertile eggs)", "setting": "Boophilus microplus", "result": 100, "unit": "%"},
      {"measurement": "logP(HCOOH)", "setting": "[3]", "result": 2.52},
      {"measurement": "logP(neutral)", "setting": "[3]", "result": 2.49},
      {"measurement": "efficacy (beetle larvae killed)", "setting": "[6]", "result": 100, "unit": "%"}
    ]},
    {"molecule": "N/C(=N/c1cc([S+]([O-])CC(F)(F)F)c(Cl)cc1Cl)C(F)(F)F", "note": "(stereo not shown) [Ib-14]", "values": [
      {"measurement": "efficacy (spider mites killed)", "setting": "[1]; [11]", "result": 100, "unit": "%"},
      {"measurement": "effect (beetle larvae killed)", "setting": "[4]", "result": 100, "unit": "%"},
      {"measurement": "efficacy (laying of fertile eggs)", "setting": "[2]; [12]", "result": 100, "unit": "%"},
      {"measurement": "efficacy (laying of fertile eggs)", "setting": "Boophilus microplus", "result": 100, "unit": "%"},
      {"measurement": "logP(HCOOH)", "setting": "[3]", "result": 2.05},
      {"measurement": "logP(neutral)", "setting": "[3]", "result": 2.02},
      {"measurement": "efficacy (beetle larvae killed)", "setting": "[6]", "result": 100, "unit": "%"}
    ]},
    {"molecule": "N/C(=N/c1ccc(C(F)(F)F)c([S+]([O-])CC(F)(F)F)c1)C(F)(F)F", "note": "(stereo not shown) [Ib-16]", "values": [
      {"measurement": "efficacy (spider mites killed)", "setting": "[1]; [11]", "result": 100, "unit": "%"},
      {"measurement": "effect (beetle larvae killed)", "setting": "[4]", "result": 100, "unit": "%"},
      {"measurement": "efficacy (laying of fertile eggs)", "setting": "[2]; [12]", "result": 100, "unit": "%"},
      {"measurement": "efficacy (laying of fertile eggs)", "setting": "Boophilus microplus", "result": 100, "unit": "%"},
      {"measurement": "logP(HCOOH)", "setting": "[3]", "result": 2.2},
      {"measurement": "logP(neutral)", "setting": "[3]", "result": 2.19},
      {"measurement": "efficacy (beetle larvae killed)", "setting": "[6]", "result": 100, "unit": "%"}
    ]},
    {"molecule": "Cc1cc(F)c(/N=C2\\CCCN2CC(F)F)cc1[S+]([O-])CC(F)(F)F", "note": "(stereo not shown) [Ib-33]", "values": [
      {"measurement": "efficacy (laying of fertile eggs)", "setting": "[8]", "result": 100, "unit": "%"},
      {"measurement": "pest or weed control at 500 g/ha", "setting": "[1]; [11]", "result": 100, "unit": "%"},
      {"measurement": "pest or weed control at 0.02 mg", "setting": "[2]; [12]", "result": 100, "unit": "%"}
    ]},
    {"molecule": "Cc1cc(F)c(/N=C(\\N)C(F)(F)C(F)(F)F)cc1[S+]([O-])CC(F)(F)F", "note": "(stereo not shown) [Ib-42]", "values": [
      {"measurement": "pest or weed control at 500 g/ha", "setting": "[1]; [11]", "result": 100, "unit": "%"},
      {"measurement": "effect (aphids killed)", "setting": "[9]; application rate 100 g/ha", "result": 80, "unit": "%"}
    ]},
    {"molecule": "N/C(=N/c1cc([S@@+]([O-])CC(F)(F)F)c(Cl)cc1Cl)C(F)(F)F", "note": "[Ib-44]", "values": [
      {"measurement": "effect (aphids killed)", "setting": "[9]; application rate 500 g/ha", "result": 100, "unit": "%"},
      {"measurement": "efficacy (spider mites killed)", "setting": "[10]; application rate 100 ppm", "result": 90, "unit": "%"},
      {"measurement": "pest or weed control at 500 g/ha", "setting": "[4]", "result": 100, "unit": "%"},
      {"measurement": "pest or weed control at 0.02 mg", "setting": "[2]; [12]", "result": 90, "unit": "%"}
    ]},
    {"molecule": "Cc1cc(F)c(/N=C2\\CCCN2CC(F)(F)F)cc1[S+]([O-])CC(F)(F)F", "note": "(stereo not shown) [Ib-115, 2-Fluoro-4-methyl-N-[1-(2,2,2-trifluoroethyl)pyrrolidin-2-ylidene]-5-[(2,2,2-trifluoroethyl)sulfinyl]aniline]", "values": [
      {"measurement": "efficacy (laying of fertile eggs)", "setting": "[8]", "result": 100, "unit": "%"},
      {"measurement": "pest or weed control at 500 g/ha", "setting": "[1]", "result": 100, "unit": "%"},
      {"measurement": "pest or weed control at 500 g/ha", "setting": "[4]", "result": 100, "unit": "%"},
      {"measurement": "pest or weed control at 0.02 mg", "setting": "[2]", "result": 100, "unit": "%"}
    ]},
    {"molecule": "CN(C)/C(=N\\c1cc([S+]([O-])CC(F)(F)F)c(Cl)cc1Cl)c1cccnc1", "note": "(stereo not shown) [Ib-123]", "values": [
      {"measurement": "pest or weed control at 500 g/ha", "setting": "[1]; [11]", "result": 100, "unit": "%"},
      {"measurement": "effect (aphids killed)", "setting": "[9]; application rate 500 g/ha", "result": 90, "unit": "%"}
    ]},
    {"molecule": "Cc1cc(C)c([S+]([O-])CC(F)(F)F)cc1/N=C1\\SCC(=O)N1C", "note": "(stereo not shown) [Ib-159]", "values": [
      {"measurement": "efficacy (spider mites killed)", "setting": "[10]; application rate 20 ppm", "result": 80, "unit": "%"}
    ]},
    {"molecule": "Cc1cc(F)c(/N=C2\\SCC(=O)N2CC(F)(F)F)cc1[S@+]([O-])CC(F)(F)F", "note": "[Ib-168]", "values": [
      {"measurement": "efficacy (spider mites killed)", "setting": "[10]; application rate 20 ppm", "result": 100, "unit": "%"}
    ]}
  ]
}
